Experimental data from patent publication US11096916B2, “Use of nicotinic acetylcholine receptor alpha 7 activators” (NOVARTIS AG, priority 2009, dated 2021).

What was measured:
[1] = molecular target: T1, human α7-nAChR (Homo sapiens, UniProt P36544); experiment: functional assay, calcium influx (FLIPR) in GH3 cells recombinantly expressing human α7-nAChR; type: cell-based; conditions: for α7-nAChR activity Efficacy compared to epibatidine (100%): Emax, maximal effect compared to the epibatidine response
T1 construct: expressed in transfected cells; host or cells: GH3 cells (rat pituitary cell line)
Method: To assess α7-nAChR activity, a functional assay was employed using GH3 cells that recombinantly expressed human α7-nAChR. 50000 cells per well were seeded 72 h prior to the experiment on black 96-well plates (Costar) and incubated at 37° C. in a humidified atmosphere (5% CO2/95% air). On the day of the experiment, medium was removed by flicking the plates and replaced with 100 μl growth medium containing […] Fluo-4, (Molecular Probes) in the presence of 2.5 mM probenecid (Sigma). The cells were incubated at 37° C. in a humidified atmosphere (5% CO2/95% air) for 1 h. Plates were flicked to remove excess of Fluo-4, washed twice with Hepes-buffered salt solution (in mM: NaCl 130, KCl 5.4, CaCl2 2, MgSO4 0.8, NaH2PO4 0.9, glucose 25, Hepes 20, pH 7.4; HBS) and refilled with 100 μl of HBS containing antagonist when appropriate. The incubation in the presence of the antagonist lasted 3-5 minutes. Plates were placed in the cell plate stage of a FLIPR device (fluorescent imaging plate reader, Molecular Devices, Sunnyvale, Calif., USA). After recording of the baseline (laser: excitation 488 nm at 1 W, CCD camera opening of 0.4 seconds) the agonists (50 μl) were added to the cell plate using the FLIPR 96-tip pipettor while simultaneously recording the fluorescence.
Calcium kinetic data were normalized to the maximal fitted response induced by epibatidine, which is a full agonist at α7-nAChR. Four parameter Hill equations were fitted to the concentration-response. Values of Emax (maximal effect in % compared to the epibatidine response) and EC50 (concentration producing half the maximal effect in μM) were derived from this fit.

[2] = molecular target: T2, human neuronal nAChR α4β2 (Homo sapiens, UniProt P17787+P43681); experiment: similar functional assay in human epithelial cell line stably expressing human α4β2 subtype; type: cell-based; conditions: α7-nAChR against α4β2-nAChR
T2 construct: expressed in transfected cells; host or cells: human epithelial cell line (named a human embryonic kidney cell line)
Method: To assess the activity of the compound of the invention on the human neuronal nAChR α4β2, a similar functional assay is carried out using a human epithelial cell line stably expressing the human α4β2 subtype (Michelmore et al., Naunyn-Schmiedeberg's Arch. Pharmacol. (2002) 366, 235).

[3] = Oral bioavailability and brain penetration in mice; type: in vivo; conditions: 30 μmol/kg p.o.
Method: Compounds were orally (30 μmol/kg) administered. Male mice (30-35 g, OF1/ICstrain) were sacrificed at indicated time points after oral administration. Trunk-blood was collected in EDTA-containing tubes and the brain was removed and immediately frozen on dry ice.
To 100 μl plasma 10 μl internal standard (1.0 μmol of a compound with solubility and ionization properties similar to test compounds) was added and extracted three times with 500 μl dichloromethane. The combined extracts were then dried under a stream of nitrogen and re-dissolved in 100 μl acetonitrile/water (70% acetonitrile). Brains were weighed and homogenized in water (1:5 w/v). Two 100 μl aliquots of each homogenate+10 μl of internal standard (same standard as used for the plasma samples) were extracted three times with 500 μl dichloromethane and further processed as the plasma samples. Samples were separated on Beckmann high-performance liquid chromatography equipment system with an autosampler (Gilson 233XL).
The limit of detection (LOD), defined as the lowest concentration of the extracted standard sample with a signal to noise ratio of ˜3.

[4] = system: mice; experiment: Social Recognition Test in mice; type: in vivo, mouse; conditions: oral, familiar partner at 24 h vs time 0
Method: Social interactions between two experimental animals are influenced by their degree of familiarity: the better they know each other, the less time they spend on mutual scrutiny at each meeting. […] Memory enhancing agents (i.e. oxiracetam) facilitate learning to the extent that the previously met (familiar) partner is still remembered after 24 h, whereas in vehicle treated control animals the memory usually fades after less than 1 hour (Thor and Holloway, 1982) or after 2-3 hours.
Pairs consisting of one adult and one young mouse were assigned at random to the experimental and control groups. In each pair only the adult mouse was orally treated 1 hour before the trial with either vehicle or the test compound. The duration of active contacts of the adult mouse with the young mouse was manually recorded over a period of 3 min, including the following behavioural, approach-related items: sniffing, nosing, grooming, licking, pawing and playing, anogenital exploration and orientation toward the young mouse; orientation, thereby, was defined as tip of nose of the adult mouse less than approximately 1 cm distant from the young mouse's body.
Twenty-four hours after the baseline-test, the adults in each treatment group were confronted again with […] the half of the adult animals were put together with the previously encountered (familiar) partner and the other half with another (unfamiliar) young mouse. Again the duration of active approach-behaviours was recorded during a 3-min period. Prior to re-test no oral injection was given.
In the table the reduction in time scrutinizing the familiar partner at time 24 compared with the familiar partner at time 0 minutes is given (value of zero would signify no reduction).

[5] = system: parkinsonian primates; experiment: Assessment of antidyskinetic effect in parkinsonian primates (MPTP, levodopa-induced dyskinesia); type: in vivo, cynomolgus monkeys (Macaca fascicularis); conditions: for Duration of Levodopa-Response / Mean Dyskinesia Score (total period): five MPTP monkeys
Method: Female ovariectomized cynomolgus monkeys (Macaca fascicularis) are used in the assessment. The animals can be rendered parkinsonian by continuous infusion of 1-methyl-4-phenyl-1,2,3,6-tetrahydropyridine (MPTP) until they develop a stable parkinsonian syndrome. After recuperation, animals are treated daily with levodopa until clear and reproducible dyskinesias are developed.
Monkeys are observed through a one-way screen window in their home cage. They are observed and scored repeatedly at baseline and after a standard s.c. dose of levodopa. Locomotor activity is assessed and followed with an electronic monitoring system. Antiparkinsonian responses are evaluated by measuring the locomotor activity and a Parkinson disability scale (see Hadj Tahar A et al, Clin Neuropharmacol 2000; 23:195-202; and Samadi P et al, Neuropharmacology 2003; 45:954-963). Dyskinesias are closely monitored and scored according to a dyskinesia rating scale (also described in Hadj Tahar A et al; and Samadi P et al) every 15 minutes until the end of the effect. The doses of levodopa are chosen to induce motor activation and reproducible dyskinesia but no excessive agitation.
Monkeys are observed for at least two hours following an oral administration of vehicle. On a subsequent day, the dose of levodopa selected is tested once. The animals are observed (with measures of parkinsonian and dyskinetic scores) for the entire duration of the levodopa effect and are also monitored for locomotor activity. This provides vehicle control values as well as levodopa antiparkinsonian and dyskinesia response data for comparison with combinations of a α7-nAChR agonist/positive allosteric modulator and levodopa. The monkeys are then tested with a α7-nAChR agonist/positive allosteric modulator in combination with a fixed dose of levodopa. A suspension for oral administration of the α7-nAChR agonist/positive allosteric modulator is administered before levodopa. After each dose, the animals are observed (with measures of parkinsonian and dyskinetic scores) for the entire duration of effect and monitored for locomotor activity or any change in behavior (e.g. circling, excitement, lethargy and sleepiness).
Using this protocol, compound A-1 at a dose of 20 mg/kg was tested. Results based on five monkeys (levodopa/benserazide doses: 22.5/50 mg; 65/50 mg; 30/50 mg; 35/50 mg; and 25/50 mg) are shown in FIGS. 1-4.

[6] = MPTP monkeys, A-1 20 mg/kg plus levodopa/benserazide, result in words
[7] = compound A-1 20 mg/kg oral before levodopa/benserazide
[8] = levodopa/benserazide without compound A-1

T1 sequence (P36544 23-502): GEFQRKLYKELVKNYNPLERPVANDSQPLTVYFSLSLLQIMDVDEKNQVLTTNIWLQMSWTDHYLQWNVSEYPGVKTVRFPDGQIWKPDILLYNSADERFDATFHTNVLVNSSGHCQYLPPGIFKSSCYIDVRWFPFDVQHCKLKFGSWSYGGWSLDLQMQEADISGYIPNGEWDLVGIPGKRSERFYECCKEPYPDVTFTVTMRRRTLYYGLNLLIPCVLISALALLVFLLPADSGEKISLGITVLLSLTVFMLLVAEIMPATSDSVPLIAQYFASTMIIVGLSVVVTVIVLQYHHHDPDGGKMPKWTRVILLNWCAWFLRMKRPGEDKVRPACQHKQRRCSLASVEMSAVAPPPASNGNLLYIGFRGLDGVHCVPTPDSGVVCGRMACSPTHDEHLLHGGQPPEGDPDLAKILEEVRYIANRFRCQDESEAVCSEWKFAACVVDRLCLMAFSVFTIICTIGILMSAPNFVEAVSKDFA
T2 sequence (P43681 29-627 limits assumed): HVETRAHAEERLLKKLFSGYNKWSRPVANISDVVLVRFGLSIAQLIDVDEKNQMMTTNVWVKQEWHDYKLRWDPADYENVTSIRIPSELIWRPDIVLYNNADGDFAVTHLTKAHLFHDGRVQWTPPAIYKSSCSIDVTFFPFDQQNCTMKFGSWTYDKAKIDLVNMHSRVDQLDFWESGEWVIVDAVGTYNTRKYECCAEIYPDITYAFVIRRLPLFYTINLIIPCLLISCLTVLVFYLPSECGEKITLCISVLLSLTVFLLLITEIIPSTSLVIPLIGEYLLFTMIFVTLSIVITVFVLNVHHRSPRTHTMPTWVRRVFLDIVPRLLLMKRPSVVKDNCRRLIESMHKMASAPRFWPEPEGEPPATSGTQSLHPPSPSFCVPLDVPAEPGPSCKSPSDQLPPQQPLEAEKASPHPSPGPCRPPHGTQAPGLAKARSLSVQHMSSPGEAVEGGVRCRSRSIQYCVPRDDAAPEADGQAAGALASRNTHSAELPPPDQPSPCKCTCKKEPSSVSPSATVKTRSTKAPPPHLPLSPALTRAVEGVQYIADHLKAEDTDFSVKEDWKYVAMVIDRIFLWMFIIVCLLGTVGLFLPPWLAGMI
T2 sequence (P17787 26-502): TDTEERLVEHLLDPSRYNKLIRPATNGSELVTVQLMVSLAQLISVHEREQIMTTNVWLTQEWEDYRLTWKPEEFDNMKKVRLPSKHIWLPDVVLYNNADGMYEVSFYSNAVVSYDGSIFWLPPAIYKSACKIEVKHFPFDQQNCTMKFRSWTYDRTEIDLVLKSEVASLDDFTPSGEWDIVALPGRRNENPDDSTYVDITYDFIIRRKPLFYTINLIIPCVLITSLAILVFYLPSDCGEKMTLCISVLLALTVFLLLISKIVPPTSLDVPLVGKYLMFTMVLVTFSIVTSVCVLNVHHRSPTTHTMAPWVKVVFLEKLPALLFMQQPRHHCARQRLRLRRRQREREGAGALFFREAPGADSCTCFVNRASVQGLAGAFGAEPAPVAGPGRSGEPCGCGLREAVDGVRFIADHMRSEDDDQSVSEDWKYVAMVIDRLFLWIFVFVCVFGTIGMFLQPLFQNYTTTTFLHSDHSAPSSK

Question: With C[C@H](OC(=O)N[C@@H]1CN2CCC1CC2)c1ccccc1F [A-1, (S)-(1-aza-bicyclo[2.2.2]oct-3-yl)-carbamic acid (S)-1-(2-fluoro-phenyl)-ethyl ester] as the compound, how does the “α7-nAChR activity Efficacy compared to epibatidine (100%)” value [1] read?
Answer: Its value is 83%.

Question: And the EC50 ([1]; read-out: α7-nAChR activity Potency EC50)?
Answer: The EC50 was 100 nM.

Question: What about the fold selectivity [2] of the same compound?
Answer: The fold selectivity was 234 fold.

Question: What about the “Brain (pmoles/g ± SD)” value ([3]; 0.5 hour) of the same compound?
Answer: Its value is 706.3 ± 153.4 pmol/g.

Question: What about the “Brain (pmoles/g ± SD)” value ([3]; 1 hour) of the same compound?
Answer: Its value is 573.7 ± 109.3 pmol/g.

Question: And the “Brain (pmoles/g ± SD)” value ([3]; 2 hour)?
Answer: The value was 191.9 ± 34.9 pmol/g.

Question: And the “Brain (pmoles/g ± SD)” value ([3]; 4 hour)?
Answer: The value was 104.6 ± 39.6 pmol/g.

Question: And the “Brain (pmoles/g ± SD)” value ([3]; 6 hour)?
Answer: The value was 40.5 ± 12.1 pmol/g.

Question: And the “Brain (pmoles/g ± SD)” value ([3]; 24 hour)?
Answer: Its value is 9.1 ± 2.7 pmol/g.

Question: What about the “Reduction in time scrutinizing in % ± SEM at 24 h” value ([4]; dose 3 mg/kg) of the same compound?
Answer: The value was 52 ± 4%.

Question: And the “antiparkinsonian activity of levodopa (antiparkinsonian score)” value [5, 6]?
Answer: The value was “does not lower”.

Question: What about the “duration of the antiparkinsonian activity of levodopa” value [5, 6] of the same compound?
Answer: The value was “significantly increases”.

Question: What about the levodopa-induced dyskinesias [5, 6] of the same compound?
Answer: Its levodopa-induced dyskinesias is “significantly reduces”.

Question: And the “onset of action of levodopa (Elapsed Time after Levodopa Administration)” value [5, 6]?
Answer: The value was “does not delay”.

Question: What about the “Duration of Levodopa-Response” value [5, 7] of the same compound?
Answer: The value was 265 min.

Question: And the “Mean Dyskinesia Score (total period)” value [5, 7]?
Answer: Its value is 2.1.

Question: Which results are given for C[C@H]1[C@H](Oc2ccc(-c3ccc4[nH]ccc4c3)nn2)C2CCN1CC2 [B-13, (2S,3R)-3-[6-(1H-indol-5-yl)-pyridazin-3-yloxy]-2-methyl-1-aza-bicyclo[2.2.2]octane]?
Answer: α7-nAChR activity Efficacy compared to epibatidine (100%) [1]: 89%; fold selectivity [2]: 324 fold; Brain (pmoles/g ± SD) ([3]; 0.25 hour): 1884 ± 291 pmol/g; Plasma (pmoles/ml ± SD) ([3]; 0.25 hour): 2196 ± 397 pmol/mL; Brain (pmoles/g ± SD) ([3]; 0.5 hour): 2960 ± 706 pmol/g; Plasma (pmoles/ml ± SD) ([3]; 0.5 hour): 2265 ± 419 pmol/mL; Brain (pmoles/g ± SD) ([3]; 1 hour): 2940 ± 335 pmol/g; Plasma (pmoles/ml ± SD) ([3]; 1 hour): 1554 ± 523 pmol/mL; Brain (pmoles/g ± SD) ([3]; 2 hour): 1260 ± 172 pmol/g; Plasma (pmoles/ml ± SD) ([3]; 2 hour): 1172 ± 252 pmol/mL; Brain (pmoles/g ± SD) ([3]; 4 hour): 379 ± 134 pmol/g; Plasma (pmoles/ml ± SD) ([3]; 4 hour): 429 ± 167 pmol/mL; Brain (pmoles/g ± SD) ([3]; 8 hour): 93 ± 30 pmol/g; Plasma (pmoles/ml ± SD) ([3]; 8 hour): 80 ± 23 pmol/mL; Brain (pmoles/g ± SD) ([3]; 24 hour): 13 ± 4 pmol/g; Reduction in time scrutinizing in % ± SEM at 24 h ([4]; dose 0.3 mg/kg): 37 ± 7%

Question: Which results are given for c1cc2cc(-c3cnc(O[C@H]4CCN5CCC[C@@H]4C5)nc3)ccc2[nH]1 [C-1, (4S,5R)-4-[5-(1H-indol-5-yl)-pyrimidin-2-yloxy]-1-aza-bicyclo[3.3.1]nonane]?
Answer: α7-nAChR activity Efficacy compared to epibatidine (100%) [1]: 84%; fold selectivity [2]: 388 fold; Brain (pmoles/g ± SD) ([3]; 0.25 hour): 620 ± 221 pmol/g; Brain (pmoles/g ± SD) ([3]; 0.5 hour): 1405 ± 539 pmol/g; Brain (pmoles/g ± SD) ([3]; 1 hour): 1458 ± 189 pmol/g; Brain (pmoles/g ± SD) ([3]; 2 hour): 1478 ± 259 pmol/g; Brain (pmoles/g ± SD) ([3]; 4 hour): 842 ± 187 pmol/g; Brain (pmoles/g ± SD) ([3]; 8 hour): 362 ± 62 pmol/g; Reduction in time scrutinizing in % ± SEM at 24 h ([4]; dose 0.3 mg/kg): 51 ± 3%

Question: Which results are given for N[C@@H](Cc1ccc(O)c(O)c1)C(=O)O [levodopa, reference compound]?
Answer: Duration of Levodopa-Response [5, 8]: 230 min; Mean Dyskinesia Score (total period) [5, 8]: 2.8
